Experimental data from ChEMBL document CHEMBL3991601, “The target landscape of clinical kinase drugs” (Science, 2017).
Activity calls are given as the source filed them.

What follows are molecules tested against T1, Cyclin-dependent kinase-like 5 (Homo sapiens, UniProt O76039).
T1 sequence (O76039 whole entry): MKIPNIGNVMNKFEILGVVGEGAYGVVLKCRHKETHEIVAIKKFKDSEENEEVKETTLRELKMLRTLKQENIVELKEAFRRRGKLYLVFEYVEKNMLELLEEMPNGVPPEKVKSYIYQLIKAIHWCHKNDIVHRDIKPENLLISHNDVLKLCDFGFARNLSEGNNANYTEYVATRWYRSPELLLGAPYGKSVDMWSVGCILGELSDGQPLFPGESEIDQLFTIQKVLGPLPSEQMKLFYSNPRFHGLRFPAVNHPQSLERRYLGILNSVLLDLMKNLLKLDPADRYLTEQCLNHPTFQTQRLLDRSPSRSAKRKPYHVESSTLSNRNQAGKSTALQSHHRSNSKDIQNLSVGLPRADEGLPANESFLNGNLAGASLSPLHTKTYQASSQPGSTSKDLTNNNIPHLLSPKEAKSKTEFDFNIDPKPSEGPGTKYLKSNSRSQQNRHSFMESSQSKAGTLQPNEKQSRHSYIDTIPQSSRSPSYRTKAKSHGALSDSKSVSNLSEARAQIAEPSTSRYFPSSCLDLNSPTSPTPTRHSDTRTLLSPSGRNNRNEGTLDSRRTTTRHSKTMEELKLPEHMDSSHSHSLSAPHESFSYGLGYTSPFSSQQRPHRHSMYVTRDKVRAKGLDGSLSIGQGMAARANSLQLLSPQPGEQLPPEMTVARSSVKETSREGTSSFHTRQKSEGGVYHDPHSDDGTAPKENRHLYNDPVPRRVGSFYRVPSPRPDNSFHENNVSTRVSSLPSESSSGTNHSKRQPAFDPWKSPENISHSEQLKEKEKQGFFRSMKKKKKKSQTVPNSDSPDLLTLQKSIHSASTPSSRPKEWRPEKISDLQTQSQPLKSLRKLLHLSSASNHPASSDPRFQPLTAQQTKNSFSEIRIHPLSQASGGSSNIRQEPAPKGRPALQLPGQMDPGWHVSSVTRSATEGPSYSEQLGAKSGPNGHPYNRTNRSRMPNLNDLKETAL
Also: in the data inactive means no Kd found up to 30 µM.

| SMILES | Kd |
| --- | --- |
| O=C(Nc1cccc(Cl)c1)Nc1ncc(CCNc2ncnc3ccsc23)s1 [SNS-314] | > 30 µM (inactive) |
| CC(C)Nc1cc(-c2c[nH]c(C(=O)N[C@H](CO)c3cccc(Cl)c3)c2)c(Cl)cn1 [ULIXERTINIB] | > 30 µM (inactive) |
| O=C(Nc1ccc(-c2ccnc(Nc3ccc(N4CCOCC4)cc3)n2)cc1)C1CCCN1 (centres undefined) [XL-019] | > 30 µM (inactive) |

What follows are molecules tested against Cyclin-dependent kinase 2 (Homo sapiens, UniProt P24941).

| SMILES | Kd |
| --- | --- |
| Cn1ncc(Cl)c1-c1cc(C(=O)N[C@H](CN)Cc2cccc(F)c2)sc1Cl [AFURESERTIB] | > 30 µM (inactive) |
| CCS(=O)(=O)N1CC(CC#N)(n2cc(-c3ncnc4[nH]ccc34)cn2)C1 [BARICITINIB] | > 30 µM (inactive) |
| COc1cc2nccc(Oc3ccc(NC(=O)NC4CC4)c(Cl)c3)c2cc1C(N)=O [LENVATINIB] | > 30 µM (inactive) |
| CNC(=O)c1ccc(C)c(-n2c(C)cc(OCc3ccc(F)cc3F)c(Br)c2=O)c1 [PH-797804] | > 30 µM (inactive) |
| C[C@@H](c1ccc2nccn2c1)n1nnc2ncc(-c3cnn(C)c3)nc21 [SAVOLITINIB] | > 30 µM (inactive) |
| CN1N=C(N)c2cn([C@@H]3O[C@H](COP(=O)(O)O)[C@@H](O)[C@H]3O)c3ncnc1c23 [TRICIRIBINE PHOSPHATE] | > 30 µM (inactive) |
| CC(C)Nc1cc(-c2c[nH]c(C(=O)N[C@H](CO)c3cccc(Cl)c3)c2)c(Cl)cn1 [ULIXERTINIB] | > 30 µM (inactive) |
| CCCS(=O)(=O)Nc1ccc(F)c(C(=O)c2c[nH]c3ncc(-c4ccc(Cl)cc4)cc23)c1F [VEMURAFENIB] | > 30 µM (inactive) |
| CCn1c(=O)c(-c2cc[nH]n2)cc2c(C)nc(N)nc21 [VOXTALISIB] | > 30 µM (inactive) |

Each molecule was assayed against T2, Long-chain-fatty-acid--CoA ligase 5 (Homo sapiens, UniProt Q9ULC5).
T2 sequence (Q9ULC5 whole entry): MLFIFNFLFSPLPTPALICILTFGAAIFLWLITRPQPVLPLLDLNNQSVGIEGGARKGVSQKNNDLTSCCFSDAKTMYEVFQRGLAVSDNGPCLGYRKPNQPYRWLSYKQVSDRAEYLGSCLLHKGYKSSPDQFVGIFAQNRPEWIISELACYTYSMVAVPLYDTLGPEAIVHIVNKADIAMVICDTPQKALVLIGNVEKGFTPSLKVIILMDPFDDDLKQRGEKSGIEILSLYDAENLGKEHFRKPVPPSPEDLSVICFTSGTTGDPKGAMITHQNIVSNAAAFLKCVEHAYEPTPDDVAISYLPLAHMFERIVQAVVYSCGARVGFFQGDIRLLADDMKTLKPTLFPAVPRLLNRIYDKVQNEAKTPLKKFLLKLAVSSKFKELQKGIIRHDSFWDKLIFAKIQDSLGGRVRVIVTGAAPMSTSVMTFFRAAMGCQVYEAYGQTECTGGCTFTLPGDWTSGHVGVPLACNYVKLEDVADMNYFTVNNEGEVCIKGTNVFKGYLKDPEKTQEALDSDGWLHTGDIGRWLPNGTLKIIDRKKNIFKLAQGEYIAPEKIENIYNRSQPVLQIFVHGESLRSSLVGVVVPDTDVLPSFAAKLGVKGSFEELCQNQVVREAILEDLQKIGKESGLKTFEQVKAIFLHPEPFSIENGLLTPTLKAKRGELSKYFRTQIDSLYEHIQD

| SMILES | Kd |
| --- | --- |
| CCS(=O)(=O)N1CC(CC#N)(n2cc(-c3ncnc4[nH]ccc34)cn2)C1 [BARICITINIB] | > 30 µM (inactive) |
| CCn1c(-c2nonc2N)nc2c(C#CC(C)(C)O)ncc(OC[C@H]3CCCNC3)c21 [GSK-690693] | > 30 µM (inactive) |
| COc1cc2nccc(Oc3ccc(NC(=O)NC4CC4)c(Cl)c3)c2cc1C(N)=O [LENVATINIB] | > 30 µM (inactive) |
| CNC(=O)c1ccc(C)c(-n2c(C)cc(OCc3ccc(F)cc3F)c(Br)c2=O)c1 [PH-797804] | > 30 µM (inactive) |
| C[C@@H](c1ccc2nccn2c1)n1nnc2ncc(-c3cnn(C)c3)nc21 [SAVOLITINIB] | > 30 µM (inactive) |
| O=C(Nc1cccc(Cl)c1)Nc1ncc(CCNc2ncnc3ccsc23)s1 [SNS-314] | > 30 µM (inactive) |
| Nc1nc(N)c2nc(-c3cccc(O)c3)c(-c3cccc(O)c3)nc2n1 [TG100-115] | > 30 µM (inactive) |
| CC(C)Nc1cc(-c2c[nH]c(C(=O)N[C@H](CO)c3cccc(Cl)c3)c2)c(Cl)cn1 [ULIXERTINIB] | > 30 µM (inactive) |
| CCCS(=O)(=O)Nc1ccc(F)c(C(=O)c2c[nH]c3ncc(-c4ccc(Cl)cc4)cc23)c1F [VEMURAFENIB] | > 30 µM (inactive) |
| O=C(Nc1ccc(-c2ccnc(Nc3ccc(N4CCOCC4)cc3)n2)cc1)C1CCCN1 (centres undefined) [XL-019] | > 30 µM (inactive) |

These molecules were tested against Choline-phosphate cytidylyltransferase A (Homo sapiens, UniProt P49585).
Sequence of Choline-phosphate cytidylyltransferase A (P49585 whole entry): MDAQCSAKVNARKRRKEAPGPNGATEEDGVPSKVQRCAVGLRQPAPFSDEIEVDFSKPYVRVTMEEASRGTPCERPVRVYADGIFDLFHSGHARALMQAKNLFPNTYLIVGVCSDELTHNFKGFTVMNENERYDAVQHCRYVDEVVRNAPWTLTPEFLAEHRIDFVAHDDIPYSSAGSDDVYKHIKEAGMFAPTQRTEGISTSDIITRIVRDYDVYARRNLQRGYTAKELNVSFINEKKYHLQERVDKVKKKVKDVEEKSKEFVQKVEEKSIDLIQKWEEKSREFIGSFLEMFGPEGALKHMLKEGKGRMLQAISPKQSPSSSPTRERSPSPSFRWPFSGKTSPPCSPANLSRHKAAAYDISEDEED

| SMILES | Kd |
| --- | --- |
| CN1CCN(c2ccc3nc(-c4c(N)c5c(F)cccc5[nH]c4=O)[nH]c3c2)CC1 [DOVITINIB] | > 30 µM (inactive) |
| CN1N=C(N)c2cn([C@@H]3O[C@H](COP(=O)(O)O)[C@@H](O)[C@H]3O)c3ncnc1c23 [TRICIRIBINE PHOSPHATE] | > 30 µM (inactive) |
| O=C(Nc1ccc(-c2ccnc(Nc3ccc(N4CCOCC4)cc3)n2)cc1)C1CCCN1 (centres undefined) [XL-019] | > 30 µM (inactive) |

Each molecule was assayed against Cyclin-dependent kinase 17 (Homo sapiens, UniProt Q00537).
Sequence of Cyclin-dependent kinase 17 (Q00537 whole entry): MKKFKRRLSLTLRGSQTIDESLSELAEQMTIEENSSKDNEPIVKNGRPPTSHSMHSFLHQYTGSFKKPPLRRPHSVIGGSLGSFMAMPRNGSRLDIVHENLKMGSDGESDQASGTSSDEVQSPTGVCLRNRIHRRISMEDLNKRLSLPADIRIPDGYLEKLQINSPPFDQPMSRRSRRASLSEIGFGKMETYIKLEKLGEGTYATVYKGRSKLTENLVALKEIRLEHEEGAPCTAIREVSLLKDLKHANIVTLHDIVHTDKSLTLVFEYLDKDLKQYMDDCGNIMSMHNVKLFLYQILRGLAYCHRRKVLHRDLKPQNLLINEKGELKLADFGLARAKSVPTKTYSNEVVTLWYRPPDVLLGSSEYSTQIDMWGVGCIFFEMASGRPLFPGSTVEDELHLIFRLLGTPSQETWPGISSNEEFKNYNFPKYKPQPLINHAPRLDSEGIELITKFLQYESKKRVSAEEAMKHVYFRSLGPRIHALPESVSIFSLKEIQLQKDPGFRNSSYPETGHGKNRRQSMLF

| SMILES | Kd |
| --- | --- |
| Cn1ncc(Cl)c1-c1cc(C(=O)N[C@H](CN)Cc2cccc(F)c2)sc1Cl [AFURESERTIB] | > 30 µM (inactive) |
| CCS(=O)(=O)N1CC(CC#N)(n2cc(-c3ncnc4[nH]ccc34)cn2)C1 [BARICITINIB] | > 30 µM (inactive) |
| COc1cc2nccc(Oc3ccc(NC(=O)NC4CC4)c(Cl)c3)c2cc1C(N)=O [LENVATINIB] | > 30 µM (inactive) |
| CNC(=O)c1ccc(C)c(-n2c(C)cc(OCc3ccc(F)cc3F)c(Br)c2=O)c1 [PH-797804] | > 30 µM (inactive) |
| C[C@@H](c1ccc2nccn2c1)n1nnc2ncc(-c3cnn(C)c3)nc21 [SAVOLITINIB] | > 30 µM (inactive) |
| CC(C)Nc1cc(-c2c[nH]c(C(=O)N[C@H](CO)c3cccc(Cl)c3)c2)c(Cl)cn1 [ULIXERTINIB] | > 30 µM (inactive) |
| CCCS(=O)(=O)Nc1ccc(F)c(C(=O)c2c[nH]c3ncc(-c4ccc(Cl)cc4)cc23)c1F [VEMURAFENIB] | > 30 µM (inactive) |

Each molecule was assayed against Mitogen-activated protein kinase 14 (Homo sapiens, UniProt Q16539).
Sequence of Mitogen-activated protein kinase 14 (Q16539 whole entry): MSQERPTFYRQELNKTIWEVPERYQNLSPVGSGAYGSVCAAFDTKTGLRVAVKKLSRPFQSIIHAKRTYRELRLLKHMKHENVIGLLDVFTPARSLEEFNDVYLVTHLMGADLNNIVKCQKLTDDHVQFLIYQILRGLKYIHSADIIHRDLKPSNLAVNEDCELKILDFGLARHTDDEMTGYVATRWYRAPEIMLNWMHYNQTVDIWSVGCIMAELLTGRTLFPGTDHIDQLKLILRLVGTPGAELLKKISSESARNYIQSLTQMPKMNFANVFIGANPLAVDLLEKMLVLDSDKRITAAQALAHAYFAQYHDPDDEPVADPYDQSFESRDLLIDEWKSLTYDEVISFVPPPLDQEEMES

| SMILES | Kd |
| --- | --- |
| Cn1ncc(Cl)c1-c1cc(C(=O)N[C@H](CN)Cc2cccc(F)c2)sc1Cl [AFURESERTIB] | > 30 µM (inactive) |
| CCS(=O)(=O)N1CC(CC#N)(n2cc(-c3ncnc4[nH]ccc34)cn2)C1 [BARICITINIB] | > 30 µM (inactive) |
| COc1cc2nccc(Oc3ccc(NC(=O)NC4CC4)c(Cl)c3)c2cc1C(N)=O [LENVATINIB] | 0.217 µM (active) |
| C[C@@H](c1ccc2nccn2c1)n1nnc2ncc(-c3cnn(C)c3)nc21 [SAVOLITINIB] | > 30 µM (inactive) |
| CN1N=C(N)c2cn([C@@H]3O[C@H](COP(=O)(O)O)[C@@H](O)[C@H]3O)c3ncnc1c23 [TRICIRIBINE PHOSPHATE] | > 30 µM (inactive) |
| CC(C)Nc1cc(-c2c[nH]c(C(=O)N[C@H](CO)c3cccc(Cl)c3)c2)c(Cl)cn1 [ULIXERTINIB] | > 30 µM (inactive) |
| CCCS(=O)(=O)Nc1ccc(F)c(C(=O)c2c[nH]c3ncc(-c4ccc(Cl)cc4)cc23)c1F [VEMURAFENIB] | > 30 µM (inactive) |
| O=C(Nc1ccc(-c2ccnc(Nc3ccc(N4CCOCC4)cc3)n2)cc1)C1CCCN1 (centres undefined) [XL-019] | > 30 µM (inactive) |

These molecules were tested against Misshapen-like kinase 1 (Homo sapiens, UniProt Q8N4C8).
Sequence of Misshapen-like kinase 1 (Q8N4C8 whole entry): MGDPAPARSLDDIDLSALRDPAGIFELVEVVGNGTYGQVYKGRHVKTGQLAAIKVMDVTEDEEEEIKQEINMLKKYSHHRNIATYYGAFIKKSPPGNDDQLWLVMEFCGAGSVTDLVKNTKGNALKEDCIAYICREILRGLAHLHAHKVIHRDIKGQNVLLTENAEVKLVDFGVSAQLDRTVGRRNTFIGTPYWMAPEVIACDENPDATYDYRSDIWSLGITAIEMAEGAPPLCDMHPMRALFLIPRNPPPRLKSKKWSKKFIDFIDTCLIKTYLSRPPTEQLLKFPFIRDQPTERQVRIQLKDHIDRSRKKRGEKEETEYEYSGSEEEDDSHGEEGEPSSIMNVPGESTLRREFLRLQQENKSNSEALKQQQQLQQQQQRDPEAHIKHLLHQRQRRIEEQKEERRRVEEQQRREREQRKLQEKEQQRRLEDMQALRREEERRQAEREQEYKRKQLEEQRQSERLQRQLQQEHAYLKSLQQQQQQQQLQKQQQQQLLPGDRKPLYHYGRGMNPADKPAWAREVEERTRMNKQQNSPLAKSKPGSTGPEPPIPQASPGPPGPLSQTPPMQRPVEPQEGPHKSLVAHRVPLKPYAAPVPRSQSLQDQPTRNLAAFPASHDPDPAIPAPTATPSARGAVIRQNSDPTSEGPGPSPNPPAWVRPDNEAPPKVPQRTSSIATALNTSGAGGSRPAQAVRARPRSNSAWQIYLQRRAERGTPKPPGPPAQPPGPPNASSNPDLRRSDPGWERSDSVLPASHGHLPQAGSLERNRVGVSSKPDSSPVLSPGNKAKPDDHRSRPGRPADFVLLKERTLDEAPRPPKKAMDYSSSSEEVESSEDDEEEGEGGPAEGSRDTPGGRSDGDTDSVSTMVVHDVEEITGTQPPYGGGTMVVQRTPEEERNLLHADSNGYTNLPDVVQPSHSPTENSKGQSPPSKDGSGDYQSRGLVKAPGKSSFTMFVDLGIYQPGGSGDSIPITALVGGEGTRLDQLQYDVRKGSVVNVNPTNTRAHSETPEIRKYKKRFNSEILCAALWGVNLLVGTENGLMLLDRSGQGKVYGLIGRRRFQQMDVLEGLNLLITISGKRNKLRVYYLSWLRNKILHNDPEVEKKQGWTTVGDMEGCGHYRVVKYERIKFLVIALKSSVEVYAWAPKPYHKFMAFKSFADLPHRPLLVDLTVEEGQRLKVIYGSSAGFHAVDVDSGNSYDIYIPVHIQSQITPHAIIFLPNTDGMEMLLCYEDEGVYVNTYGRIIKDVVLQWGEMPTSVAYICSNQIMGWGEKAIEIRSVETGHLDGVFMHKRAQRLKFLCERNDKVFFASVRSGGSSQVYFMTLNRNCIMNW

| SMILES | Kd |
| --- | --- |
| CCS(=O)(=O)N1CC(CC#N)(n2cc(-c3ncnc4[nH]ccc34)cn2)C1 [BARICITINIB] | > 30 µM (inactive) |
| COc1cc2nccc(Oc3ccc(NC(=O)NC4CC4)c(Cl)c3)c2cc1C(N)=O [LENVATINIB] | > 30 µM (inactive) |
| CNC(=O)c1ccc(C)c(-n2c(C)cc(OCc3ccc(F)cc3F)c(Br)c2=O)c1 [PH-797804] | > 30 µM (inactive) |
| C[C@@H](c1ccc2nccn2c1)n1nnc2ncc(-c3cnn(C)c3)nc21 [SAVOLITINIB] | > 30 µM (inactive) |

Each molecule was assayed against Guanine nucleotide-binding protein G(i) subunit alpha-2 (Homo sapiens, UniProt P04899).
Sequence of Guanine nucleotide-binding protein G(i) subunit alpha-2 (P04899 whole entry): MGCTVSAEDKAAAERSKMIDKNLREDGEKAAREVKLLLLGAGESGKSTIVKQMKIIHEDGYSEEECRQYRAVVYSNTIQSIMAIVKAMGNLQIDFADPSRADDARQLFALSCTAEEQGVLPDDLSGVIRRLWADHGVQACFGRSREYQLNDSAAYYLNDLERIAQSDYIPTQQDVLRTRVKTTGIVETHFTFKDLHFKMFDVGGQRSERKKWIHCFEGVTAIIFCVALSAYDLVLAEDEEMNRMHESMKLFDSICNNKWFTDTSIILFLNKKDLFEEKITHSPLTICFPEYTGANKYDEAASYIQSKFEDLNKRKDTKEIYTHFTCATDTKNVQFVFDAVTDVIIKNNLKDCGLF

| SMILES | Kd |
| --- | --- |
| Cn1ncc(Cl)c1-c1cc(C(=O)N[C@H](CN)Cc2cccc(F)c2)sc1Cl [AFURESERTIB] | > 30 µM (inactive) |
| CCS(=O)(=O)N1CC(CC#N)(n2cc(-c3ncnc4[nH]ccc34)cn2)C1 [BARICITINIB] | > 30 µM (inactive) |
| COc1cc2nccc(Oc3ccc(NC(=O)NC4CC4)c(Cl)c3)c2cc1C(N)=O [LENVATINIB] | > 30 µM (inactive) |
| CNC(=O)c1ccc(C)c(-n2c(C)cc(OCc3ccc(F)cc3F)c(Br)c2=O)c1 [PH-797804] | > 30 µM (inactive) |
| O=C(Nc1cccc(Cl)c1)Nc1ncc(CCNc2ncnc3ccsc23)s1 [SNS-314] | > 30 µM (inactive) |
| Nc1nc(N)c2nc(-c3cccc(O)c3)c(-c3cccc(O)c3)nc2n1 [TG100-115] | > 30 µM (inactive) |
| CCCS(=O)(=O)Nc1ccc(F)c(C(=O)c2c[nH]c3ncc(-c4ccc(Cl)cc4)cc23)c1F [VEMURAFENIB] | > 30 µM (inactive) |
| CCn1c(=O)c(-c2cc[nH]n2)cc2c(C)nc(N)nc21 [VOXTALISIB] | > 30 µM (inactive) |
| O=C(Nc1ccc(-c2ccnc(Nc3ccc(N4CCOCC4)cc3)n2)cc1)C1CCCN1 (centres undefined) [XL-019] | > 30 µM (inactive) |

These molecules were tested against Dual specificity protein kinase CLK4 (Homo sapiens, UniProt Q9HAZ1).
Sequence of Dual specificity protein kinase CLK4 (Q9HAZ1 whole entry): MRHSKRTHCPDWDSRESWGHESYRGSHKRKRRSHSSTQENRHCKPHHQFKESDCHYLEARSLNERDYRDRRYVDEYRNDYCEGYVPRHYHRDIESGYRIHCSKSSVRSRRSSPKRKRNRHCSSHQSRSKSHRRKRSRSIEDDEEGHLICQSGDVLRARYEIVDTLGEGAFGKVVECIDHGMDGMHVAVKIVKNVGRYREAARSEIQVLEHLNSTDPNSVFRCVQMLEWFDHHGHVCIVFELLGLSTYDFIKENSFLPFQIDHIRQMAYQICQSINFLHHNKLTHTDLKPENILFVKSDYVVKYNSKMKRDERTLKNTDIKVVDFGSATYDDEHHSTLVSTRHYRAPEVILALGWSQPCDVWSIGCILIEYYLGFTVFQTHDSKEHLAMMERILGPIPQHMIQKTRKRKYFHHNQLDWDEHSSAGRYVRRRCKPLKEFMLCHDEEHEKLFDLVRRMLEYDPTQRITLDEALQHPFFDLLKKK

| SMILES | Kd |
| --- | --- |
| CCS(=O)(=O)N1CC(CC#N)(n2cc(-c3ncnc4[nH]ccc34)cn2)C1 [BARICITINIB] | > 30 µM (inactive) |
| COc1cc2nccc(Oc3ccc(NC(=O)NC4CC4)c(Cl)c3)c2cc1C(N)=O [LENVATINIB] | > 30 µM (inactive) |
| C[C@@H](c1ccc2nccn2c1)n1nnc2ncc(-c3cnn(C)c3)nc21 [SAVOLITINIB] | > 30 µM (inactive) |
| CC(C)Nc1cc(-c2c[nH]c(C(=O)N[C@H](CO)c3cccc(Cl)c3)c2)c(Cl)cn1 [ULIXERTINIB] | > 30 µM (inactive) |
| CCCS(=O)(=O)Nc1ccc(F)c(C(=O)c2c[nH]c3ncc(-c4ccc(Cl)cc4)cc23)c1F [VEMURAFENIB] | > 30 µM (inactive) |
| O=C(Nc1ccc(-c2ccnc(Nc3ccc(N4CCOCC4)cc3)n2)cc1)C1CCCN1 (centres undefined) [XL-019] | > 30 µM (inactive) |
